Source: patent US20080311103A1, “Anti-Inflammatory Peptides and Methods of Use Thereof” (YEDA RESEARCH AND DEVELOPMENT CO. LTD. at THE WEIZMANN …, priority 2004, published 2008)
Where two headings read alike, the source gives them in different places. Ends that are not written are not given here.

Experiments:
[1] = tested on: mice sensitized with oxazolone; assay type: in vivo, mouse; conditions: ear measured 24 hours after oxazolone challenge, BALB/c mice
Procedure: Groups of 5 female inbred BALB/c mice (The Jackson Laboratory, Bar Harbor, Me.) were sensitized on the shaved abdominal skin with 2% oxazolone (100 μl) dissolved in acetone/olive oil [4:1 (vol/vol)] applied topically. Delayed type hypersensitivity (DTH) was elicited 5 days later by challenging the mice with 0.5% oxazolone in acetone/olive oil (10 μl given topically to each side of the ear). A constant area of the ear was measured immediately before and 24 hours after the challenge using a Mitutoyo engineer's micrometer. The percent inhibition of DTH is calculated as follows:
% Inhibition=[1-{(treated−negative control)/(positive control−negative control)}]×100.
The positive control is the DTH reaction to oxazolone elicited in sensitized mice without treatment. The negative control is the background swelling produced by the oxazolone antigen in naïve non-sensitized mice.
Peptides Nos. 1-5 were given to the mice by mini perfusion pumps (alzet osmotic pump model 2001), which contained the indicated peptide (40 μg; 200 μl). The pumps were implanted under the mouse skin one day before oxazolone sensitization and they released the peptide in a rate of 1 μl per hour (0.2 μg/hour) for 7 days.
Peptides Nos. 6-10 were given to the mice by subcutaneously injection (1 μg or 10 μg per mouse), every day, starting at one day before oxazolone sensitization and ending at day 5 post DTH initiation.

BALB/C mice = experiment: TNBS-induced colitis model of inflammatory bowel disease (IBD); assay type: in vivo, mouse; conditions: 200 μg/mouse SC daily; day 7 after TNBS
Procedure: BALB/C mice, which were anesthetized for 5-10 min, received by intrarectal administration, 30 μl of a solution of 2,4,6-trinitrobenzene sulfonic acid (TNBS; 100 mg/kg) dissolved in 0.9% NaCl and mixed with an equal volume of ethanol (50% ethanol). Animals were killed 7 days after TNBS administration.
Wound fluid peptides were administered once daily by subcutaneous (SC) administration starting 1 day before the induction of colitis and every day for the next 7 days as follows:
Treatment with the wound fluid peptides was evaluated at day 7 by determination of macroscopic inflammation scores. The colon of each mouse was examined under a dissecting microscope to evaluate the macroscopic lesions according to the Wallace criteria. The Wallace score lists macroscopic colon lesions on a scale from 0 to 10 based on features reflecting inflammation, such as hyperemia, thickening of the bowel, and extent of ulceration (Wallace, J. L., et al. 1989, Gastroenterology, 96:29).

[2] = tested on: anti-CD3 antibody induced IFNγ secretion from T cells; experiment: IFNγ secretion by anti-CD3 activated T cells; assay type: cell-based, human; parameters: concentration or dose not given beside the values; conditions: 24 hours; ELISA; FIG. 7B
Procedure: (§1) Human T cells were purified and maintained in culture (RPMI containing 10% FCS, 1% Pyruvate, 1% glutamine, 1% antibiotics, 7.5% CO2, humidified atmosphere) for 15 hr before they were transferred to RPMI and activated (2 hr, 37° C.) with the indicated concentrations of the peptides. The cells were then plated (1.5×10^6 cells/0.5 ml/well) in 24 wells plates (non-tissue culture grade) precoated with anti-CD3 mAb in order to stimulate the cells to secrete cytokines. After 24 hours, the supernatants were collected and their cytokine content (TNFα and IFNγ) was determined by ELISA using anti-IFNγ and anti TNFα mAb (Pharmingen; San Diego, Calif.) according to the manufacturer's instructions.

[3] = tested on: anti-CD3 antibody induced TNFα secretion from T cells; experiment: TNFα secretion by anti-CD3 activated T cells; assay type: cell-based, human; conditions: peptide 100 ng/ml; 24 hours; ELISA; FIG. 7A
Procedure: as §1

NF-κB = experiment: Nuclear translocation of NF-κB in T cells (Western blot); assay type: cell-based; conditions: peptide 100 ng/ml for 2 hours, then anti-CD3 mAb 24 hr; human T cells
Excerpt: To address the modulatory role of the wound fluid peptides on the signal transduction cascade leading to regulation of T-cell secretion of TNF-α(and IFN-γ, the nuclear translocation of NF-κB was detected by probing nuclear and cytoplasmic T-cell extracts using mAb specific for the p65 subunit of NF-κB. The nuclear protein Lamin B was used as continuatively expressed control protein for the quantification of protein amounts.
Human T cells. T cells were purified from the peripheral blood of healthy human donors (Blood Bank; Tel-Hashomer, Israel). The whole blood was incubated (20 min, 22° C.) with RosetteSep™ human T-cell enrichment cocktail (StemCell Technologies, Vancouver, BC, Canada). The remaining unsedimented cells were then loaded onto Lymphocyte Separation Medium (ICN Biomedicals; Belgium), isolated by density centrifugation, and washed with PBS. The purified cells (>95% CD3^+ T cells) so obtained were cultured in RPMI containing antibiotics and 10% heat-inactivated FCS. Western blot analysis of T-cell nuclear extracts. Purified T cells (5×10^6) were preincubated with the peptides (100 ng/ml) for 2 hours (37° C. in a 7% CO2, humidified atmosphere). The cells were then replated in 24-well plates pre-coated with anti-CD3 mAb for 24 hr (37° C. in a 7% CO2, humidified atmosphere). T cells were lysed in 10 mM HEPES, 1.5 mM MgCl2, 1 mM dithiothreitol (DTT), 1 mM PMSF, 0.5% Nonidet P-40. The lysates were incubated on ice for 10 min and centrifuged at 2000 rpm for 10 min at 4° C. The supernatants (cytoplasmic extracts) were transferred and the pellet (nuclei) was suspended in buffer containing 30 mM HEPES, 450 mM NaCl, 25% Glycerol, 0.5 mM EDTA, 6 mM DTT, 12 mM MgCl2 1 mM PMSF, 10 μg/ml leupeptin, 10 μg/ml pepstatin, 1% phosphatase inhibitor cocktail, and the suspension was incubated on ice for 30 min. The lysates were cleared by centrifugation (30 min, 14×10^3 rpm, 4° C.), and the resulting supernatants analyzed for protein content. […]

T cells = experiment: Chemotaxis assay: T cell migration toward SDF-1α; assay type: cell-based; conditions: SDF-1α 250 ng/ml, 3 hr
Procedure: The migration of ^51-[Cr]-labeled T cells was examined in […] Transwell chemotaxis apparatus (6.5-mm diameter; Corning, N.Y.), consisting of two compartments separated by polycarbonate filters (5 μm pore size) pretreated (1 hr, 37° C.) with FN (25 μg/ml). ^51-[Cr]-labeled T cells (2×10^5 in 100 μl of RPMI containing 0.1% BSA and antibiotics), which were pre-incubated with the indicated concentrations of peptides (30 min, 37° C.), were added to the upper chambers. The bottom chambers contained 0.6 ml of the same media, with or without human Stromal cell-Derived Factor-1α (SDF-1α; 250 ng/ml). After incubation at 37° C. for 3 hr (7.5% CO2-humidified atmosphere), cells that had transmigrated into the lower wells were collected, centrifuged, and lysed (in 100 μl of distilled water containing 1 M NaOH and 0.1% Triton X-100), and the radioactivity in the resulting supernatants was determined with a γ-counter. The percentage (±SD) of cell migration was calculated as the radioactivity counts in the lysates of the lower chambers (representative of the migrating cells) divided by the total counts (representative of 2×10^5 cells).

Jurkat and THP-1 cells = experiment: TNFα secretion by PMA/PHA induced Jurkat and THP-1 cells; assay type: cell-based, human; conditions: 48 hours, ELISA
Procedure: Jurkat cells human T cell lymphoma line) (2×10^6 cells/ml) cultured in RPMI-1640 supplemented with 10% FCS were activated with PMA (50 ng/ml) and phytohaemagglutinin PHA (4 µg/ml) for 6 hours at 37° C. (7.5% CO2-humidified atmosphere). Thereafter, the cells were washed, plated on 24-well plates (10^6 cells/well in 0.5 ml), and incubated (1 hour at 37° C., 7.5% CO2-humidified atmosphere) with the indicated concentrations of peptides 1-5. Following the incubation, THP-1 cells (human monocytic cell line derived from a patient with acute monocytic leukaemia; 1.25×10^5 cells/0.5 ml/well) were added to the wells. After 48 hours, the supernatants were collected and their TNF[…] content was determined by ELISA using anti TNF[…] mAb (Pharmingen; San Diego, Calif.) according to the manufacturer's instructions.

[4] = Stability to serum proteases (HPLC); assay type: in vitro ADME, mouse
Procedure: To test the stability of peptide No. 5 to blood proteases, 100 μl of a 1 mg/ml solution of the peptide were incubated at 37° C. with 40 μl of mouse serum. Samples withdrawn after 0, 2, 4 or 24 hours were precipitated with 200 μl of methanol and centrifuged for 1 min at 10,000×g. The crude solution was analyzed by HPLC equipped with a 220 nm detector. The crude solution was diluted in 0.1% trifluoroacetic acid (TFA), applied on a RP-18^e column (Chromolith) (MERCK, Darmstadt, Germany), and the HPLC conditions were as follows: mobile phase A, TFA (0.1%) in water; mobile phase B: TFA (0.1%) in acetonitrile (75%). The flow rate was 3 ml/min and the gradient was 0 to 100% B for the first 10 min, 100% B for additional 5 min, and for the last 5 min the gradient was 100% B to 0.

[5] = FIG. 1, peptides by implanted osmotic pump, 0.2 μg/hour for 7 days
[6] = FIG. 2, peptides subcutaneously 1 μg or 10 μg per mouse every day

| Molecule | inhibition of DTH response [1, 5] | inhibition of DTH response [1, 6] | inhibition of anti-CD3 antibody induced IFNγ secretion from T cells [2] | inhibition of anti-CD3 antibody induced TNFα secretion from T cells [3] | also measured |
| --- | --- | --- | --- | --- | --- |
| C[C@@H]1C[C@H]2[C@@H]3CCC4=CC(=O)C=C[C@]4(C)[C@@]3(F)[C@@H](O)C[C@]2(C)[C@@]1(O)C(=O)CO [Dexamethasone, reference compound] | ~70% | ~70% |  |  | Wallace score (macroscopic inflammation score, scale 0 to 10) (BALB/C mice): 2.9±1 |
| ALTDMPQM [compound 7, residues 250-257 of Fibrinogen Aα; identified in wound fluids, then synthesized] |  | hardly inhibited | 30% | 30% |  |
| DHSKNPVGV [compound 8, residues 320-328 of ADAM 8; identified in wound fluids, then synthesized] |  | 60% | 15% | 30% |  |
| ELERPGGNEI [compound 6, residues 260-269 of Fibrinogen Aα; identified in wound fluids, then synthesized] |  | 50% | 40% | 40% | NF-κB translocation to the nucleus (NF-κB): significant down-regulation |
| MIESSMN [compound 1, residues 827-833 of LRP5; identified in wound fluids, then synthesized] | hardly inhibited |  |  |  | inhibition of T cell transmigration toward SDF-1α (T cells; concentration range 10-1000 ng/ml): did not show a significant inhibition; inhibition of TNFα secretion by Jurkat and THP-1 cells (Jurkat and THP-1 cells; concentration range 1-1000 ng/ml): did not exert a significant inhibition |
| NDADDST [compound 9, residues 302-308 of Cadherin 4; identified in wound fluids, then synthesized] |  | hardly inhibited | 40% | ~50% |  |
| NPDESSKPNMI [peptide No. 5, NPDESSKPNMI] |  |  |  |  | % Area (HPLC peak of peptide) ([4]; Test 1, 0 hours incubation with mouse serum): 74.23%; % Area (HPLC peak of peptide) ([4]; Test 1, 2 hours incubation at 37° C. with mouse serum): 75.08%; % Area (HPLC peak of peptide) ([4]; Test 1, 4 hours incubation at 37° C. with mouse serum): 68.94%; % Area (HPLC peak of peptide) ([4]; Test 1, 24 hours incubation at 37° C. with mouse serum): 68.69%; % Area (HPLC peak of peptide) ([4]; Test 2, 0 hours incubation with mouse serum): 90.62%; % Area (HPLC peak of peptide) ([4]; Test 2, 2 hours incubation at 37° C. with mouse serum): 87.32%; resistance to serum proteases ([4]; mouse serum, up to 24 hours): highly resistant; metabolised at 2 h, 0.71 mg/ml ([4]; mouse, mouse serum, after 2 hours (test 2), read-out: peptide degraded in the presence of mouse serum): ~3.5%; metabolised at 4 h, 0.71 mg/ml ([4]; mouse, mouse serum, after 4 hours (test 1), read-out: peptide degraded in the presence of mouse serum): 7.5%; metabolised at 24 h, 0.71 mg/ml ([4]; mouse, mouse serum, after 24 hours (test 1), read-out: peptide degraded in the presence of mouse serum): 7.5%; remaining at 24 h, 0.71 mg/ml ([4]; mouse, mouse serum, after 24 hours of exposure to serum proteases, read-out: peptide still present as an intact peptide): > 90% |
| NQGEESAEI [compound 10, residues 470-478 of Calcitonin receptor; identified in wound fluids, then synthesized] |  | 30% | 75% | ~70% |  |
| TDYGKDLMEKV [peptide No. 4, residues 42-52 of Apo A-II; identified in wound fluids, then synthesized] | hardly inhibited |  | ~50% | ~50% | inhibition of T cell migration toward SDF-1α (T cells; peptide 1000 ng/ml): 30%; inhibition of TNFα secretion by Jurkat and THP-1 cells compared to PMA/PHA alone (Jurkat and THP-1 cells; peptide 1 μg/ml): 40% |
